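Exposure lasted 48 hours, with cells grown in 96-well plates and compounds tested at five concentrations. GI50 is the concentration that inhibits growth by half.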 Activity calls are given as the source filed them. Cut-off read from the data, not from the text of the source: active = GI50 up to about 1.1 µM and inactive = higher.
Experiments:
Assay in all cases: inhibition of tumour cell growth, NCI panel, 48 h
SR = tested on: SR
NCI-H460 = tested on: NCI-H460
NCI-H226 = tested on: NCI-H226
TK-10 = tested on: TK-10
DU-145 = tested on: DU-145
U-251 = tested on: U-251
MCF7 = tested on: MCF7
CCRF-CEM = tested on: CCRF-CEM
SK-MEL-5 = tested on: SK-MEL-5
SF-268 = tested on: SF-268
NCI-H522 = tested on: NCI-H522
NCI/ADR-RES = tested on: NCI/ADR-RES
HCC 2998 = tested on: HCC 2998
UO-31 = tested on: UO-31
A498 = tested on: A498
OVCAR-3 = tested on: OVCAR-3
UACC-257 = tested on: UACC-257
T47D = tested on: T47D
HT-29 = tested on: HT-29
Hs-578T = tested on: Hs-578T
MOLT-4 = tested on: MOLT-4
K562 = tested on: K562
ACHN = tested on: ACHN
RPMI-8226 = tested on: RPMI-8226
MDA-N = tested on: MDA-N
786-0 = tested on: 786-0
SF-539 = tested on: SF-539
OVCAR-8 = tested on: OVCAR-8
OVCAR-4 = tested on: OVCAR-4
HCT-116 = tested on: HCT-116
Malme-3M = tested on: Malme-3M
SK-MEL-2 = tested on: SK-MEL-2
UACC-62 = tested on: UACC-62
SNB-75 = tested on: SNB-75
BT-549 = tested on: BT-549
RXF 393 = tested on: RXF 393
HL-60 = tested on: HL-60
M14 = tested on: M14
COLO 205 = tested on: COLO 205
OVCAR-5 = tested on: OVCAR-5
SK-OV-3 = tested on: SK-OV-3
MDA-MB-435 = tested on: MDA-MB-435
A549 = tested on: A549
HOP-62 = tested on: HOP-62
SN12C = tested on: SN12C
IGROV-1 = tested on: IGROV-1
PC-3 = tested on: PC-3
SF-295 = tested on: SF-295
NCI-H23 = tested on: NCI-H23
EKVX = tested on: EKVX
SK-MEL-28 = tested on: SK-MEL-28
KM12 = tested on: KM12
MDA-MB-231 = tested on: MDA-MB-231
CAKI-1 = tested on: CAKI-1
HOP-92 = tested on: HOP-92
HCT-15 = tested on: HCT-15
SW-620 = tested on: SW-620
SNB-19 = tested on: SNB-19
LOX IMVI = tested on: LOX IMVI

Cc1cc(C)c(NC(=S)NC(=O)c2ccccc2)cc1C
GI50 (SR): 37.7 µM (inactive) | GI50 (NCI-H460): > 100 µM (inactive) | GI50 (NCI-H226): > 100 µM (inactive) | GI50 (TK-10): > 100 µM (inactive) | GI50 (DU-145): > 100 µM (inactive) | GI50 (U-251): 64.1 µM (inactive) | GI50 (MCF7): 38.2 µM (inactive) | GI50 (CCRF-CEM): > 100 µM (inactive) | GI50 (SK-MEL-5): 25.2 µM (inactive) | GI50 (SF-268): > 100 µM (inactive) | GI50 (NCI-H522): > 100 µM (inactive) | GI50 (NCI/ADR-RES): > 100 µM (inactive) | GI50 (HCC 2998): > 100 µM (inactive) | GI50 (UO-31): > 100 µM (inactive) | GI50 (A498): > 100 µM (inactive) | GI50 (OVCAR-3): > 100 µM (inactive) | GI50 (UACC-257): 84.7 µM (inactive) | GI50 (T47D): 55.7 µM (inactive) | GI50 (HT-29): > 100 µM (inactive) | GI50 (Hs-578T): > 100 µM (inactive) | GI50 (MOLT-4): 93.5 µM (inactive) | GI50 (K562): 74 µM (inactive) | GI50 (ACHN): > 100 µM (inactive) | GI50 (RPMI-8226): > 100 µM (inactive) | GI50 (MDA-N): 78.9 µM (inactive) | GI50 (786-0): > 100 µM (inactive) | GI50 (SF-539): > 100 µM (inactive) | GI50 (OVCAR-8): > 100 µM (inactive) | GI50 (OVCAR-4): 61.2 µM (inactive) | GI50 (HCT-116): > 100 µM (inactive) | GI50 (Malme-3M): > 100 µM (inactive) | GI50 (SK-MEL-2): > 100 µM (inactive) | GI50 (UACC-62): > 100 µM (inactive) | GI50 (SNB-75): > 100 µM (inactive) | GI50 (BT-549): > 100 µM (inactive) | GI50 (RXF 393): > 100 µM (inactive) | GI50 (HL-60): > 100 µM (inactive) | GI50 (M14): > 100 µM (inactive) | GI50 (COLO 205): > 100 µM (inactive) | GI50 (OVCAR-5): > 100 µM (inactive) | GI50 (SK-OV-3): > 100 µM (inactive) | GI50 (MDA-MB-435): 52.8 µM (inactive) | GI50 (A549): > 100 µM (inactive) | GI50 (HOP-62): > 100 µM (inactive) | GI50 (SN12C): > 100 µM (inactive) | GI50 (IGROV-1): > 100 µM (inactive) | GI50 (PC-3): 67.3 µM (inactive) | GI50 (SF-295): 34.4 µM (inactive) | GI50 (NCI-H23): > 100 µM (inactive) | GI50 (EKVX): > 100 µM (inactive) | GI50 (SK-MEL-28): > 100 µM (inactive) | GI50 (KM12): > 100 µM (inactive) | GI50 (MDA-MB-231): > 100 µM (inactive) | GI50 (CAKI-1): > 100 µM (inactive) | GI50 (HOP-92): > 100 µM (inactive) | GI50 (HCT-15): 93.1 µM | GI50 (SW-620): > 100 µM (inactive) | GI50 (SNB-19): > 100 µM (inactive) | GI50 (LOX IMVI): > 100 µM (inactive)

From ChEMBL document CHEMBL1201862, “PubChem BioAssay data set” (2004)
